Experimental data published in US20250205168A1, “METHOD FOR PRODUCING NUCLEIC ACID-ENCAPSULATED LIPID NANOPARTICLES, METHOD FOR PRODUCING PHARMACEUTICAL COMPOSITION CONTAINING SAID LIPID NANOPARTICLES, AND METHOD FOR INTRODUCING NUCLEIC ACID INTO CELL OR TARGET CELL” (NOF Corporation, priority 2022, published 2025).
“Also recorded” adds a separate entry of the source.

Columns and labels:
[1] = mRNA encapsulation rate (Ribogreen assay); assay type: physicochemical; details: 37° C. 5 min
Protocol: The particle size, polydispersity index (PdI), and mRNA encapsulation rate of the obtained nucleic acid-encapsulated nanoparticles were analyzed. The particle size and PdI were measured by the dynamic light scattering method using a Zetasizer (registered trademark). The mRNA encapsulation rate was measured by the Ribogreen (registered trademark) assay. […]
The particle size, polydispersity index (PdI), and mRNA encapsulation rate of the obtained nucleic acid-encapsulated nanoparticles were analyzed. The particle size and PdI were measured by the dynamic light scattering method using a Zetasizer (registered trademark). The mRNA encapsulation rate was measured by the Ribogreen (registered trademark) assay. As a result, mRNA was encapsulated at any incubation temperature, and no difference in the encapsulation rate was observed. The particle size of the obtained nucleic acid-encapsulated nanoparticles tended to increase with increasing incubation temperature (see FIG. 24 and FIG. 25).
The particle size, polydispersity index (PdI), and mRNA encapsulation rate of the obtained nucleic acid-encapsulated nanoparticles were analyzed. The particle size and PdI were measured by the dynamic light scattering method using a Zetasizer (registered trademark). The mRNA encapsulation rate was measured by the Ribogreen (registered trademark) assay. As a result, the encapsulation rate of mRNA tended to decrease with increasing salt concentration of the buffer (see FIG. 34 and FIG. 35).
The particle size, polydispersity index (PdI), and mRNA encapsulation rate of the obtained nucleic acid-encapsulated nanoparticles were analyzed. The particle size and PdI were measured by the dynamic light scattering method using a Zetasizer (registered trademark). The mRNA encapsulation rate was measured by the Ribogreen (registered trademark) assay. As a result, mRNA was encapsulated (see Table 5).
The particle size, polydispersity index (PdI), and mRNA encapsulation rate of the obtained nucleic acid-encapsulated nanoparticles or nucleic acid-encapsulated nanoparticles prepared by freeze-dry technique in Comparative Example 1 were analyzed. The particle size and PdI were measured by the dynamic light scattering method using a Zetasizer (registered trademark). The mRNA encapsulation rate was measured by the Ribogreen (registered trademark) assay. […] In addition, the particle size of the nucleic acid-encapsulated nanoparticles was smaller than that of nucleic acid-encapsulated nanoparticles produced by the freeze-dry technique (see FIG. 14 and FIG. 15).
The particle size, polydispersity index (PdI), and mRNA encapsulation rate of the obtained nucleic acid-encapsulated nanoparticles or nucleic acid-encapsulated nanoparticles prepared by freeze-dry technique in Comparative Example 2, Comparative Example 3 were analyzed. The particle size and PdI were measured by the dynamic light scattering method using a Zetasizer (registered trademark). The mRNA encapsulation rate was measured by the Ribogreen (registered trademark) assay. […] In addition, the particle size of the nucleic acid-encapsulated nanoparticles was smaller than that of nucleic acid-encapsulated nanoparticles produced by the freeze-dry technique (see FIG. 36 and FIG. 37). In FIG. 36, FIG. 37 and FIG. 38, Comparative Example 2 in which the total flow rate during preparation of lipid nanoparticles was 1 mL/min, is shown as “freeze-dry (FR=1)”, and Comparative Example 3, in which the total flow rate was 16 mL/min, is shown as “freeze-dry (FR=16)”.
The particle size, polydispersity index (PdI), and mRNA encapsulation rate of the obtained nucleic acid-encapsulated nanoparticles (liquid) or nucleic acid-encapsulated nanoparticles produced using a microfluidic channel (MF) (LNP prepared with the same lipid composition and using MES buffer (20 mM, pH 6.5) containing nucleic acid and an ethanol solution of lipid) were analyzed. […]

[2] = Zeta potential by electrophoretic light scattering (Zetasizer); assay type: physicochemical; details: Example 10; particles produced using SS-OP at pH and pH 5.5 compared to pH 6, pH 6.5 and pH 7; measured in MES pH 5-7
Protocol: Among the obtained nucleic acid-encapsulated nanoparticles, the particles produced using SS-OP were analyzed for Zeta potential. Zeta potential was measured by the electrophoretic light scattering method using Zetasizer (registered trademark) and using MES buffer (pH 5, pH 5.5, pH 6, pH 6.5 or pH 7).

HeLa cells = assay: nucleic acid introduction into HeLa cells, luciferase luminescence (Steady-Glo, GloMax 20/20 luminometer); assay type: cell-based; details: Example 10, particles produced using SS-OP, after 13 hr
Protocol: The nucleic acid-encapsulated nanoparticles obtained were applied to HeLa cells to evaluate the nucleic acid introduction efficiency. HeLa cells were seeded in D-MEM medium (high glucose) (containing L-glutamine and phenol red) (containing 10% FBS and 1% penicillin-streptomycin solution added) at 5×10^3 cells/100 μL in a 96-well flat-bottom transparent plate. The obtained nucleic acid-encapsulated particles were added such that the nucleic acid concentration in the medium was 0.02 μg/4 μL. After 16 hr, the amount of luciferase protein introduced was evaluated using the amount of luminescence. 100 μL of Steady-Glo (registered trademark) was added, and the cells were lysed by shaking for 5 min, and the amount of luminescence was quantified using a GloMax 20/20 luminometer. As a result, the introduction of luciferase protein was confirmed at any incubation temperatures, and no difference in in vitro activity was observed.
The nucleic acid-encapsulated nanoparticles obtained were applied to HeLa cells and the nucleic acid introduction efficiency was evaluated. […] After 13 hr, the amount of luciferase protein introduced was evaluated using the amount of luminescence. 100. μL of Steady-Glo (registered trademark) was added, and the cells were lysed by shaking for 5 min, and the amount of luminescence was quantified using a GloMax 20/20 luminometer. […]

[3] = Example 4, LNP in MES pH 5, 5.5, 6, 6.5 or 7, mRNA 1.5 μg/135 μL
[4] = Example 10, LNP and mRNA (3 μg/135 μL) in MES pH 5, 5.5, 6, 6.5 or 7

Row | encapsulation rate at higher pH, in words [1, 3] | encapsulation rate at higher pH, in words [1, 4] | Zeta potential, in words [2] | Compound | in vitro activity (luciferase luminescence) by pH of production, in words (HeLa cells)
1 | decreased at pH 6, pH 6.5, and pH 7 | decreased at pH 6.5 and pH 7 |  | CCCCCCCC/C=C\CCCCCCCC(=O)OCC(CN(C)C)OC(=O)CCCCCCC/C=C\CCCCCCCC (stereo not shown) [DODAP, 1,2-dioleoyloxy-3-dimethylaminopropane, reference compound] | 
2 | decreased at pH 6.5 and pH 7 | decreased at pH 6.5 and pH 7 |  | CCCCCC=CCC=CCCCCCCCCC(CCCCCCCCC=CCC=CCCCCC)OC(=O)CCCN(C)C (stereo not shown) [MC3, heptatriaconta-6,9,28,31-tetraen-19-yl-4-(dimethylamino)butanoate, reference compound] | 
3 | decreased at pH 6, pH 6.5, and pH 7 | decreased at pH 6.5 and pH 7 |  | CCCCCCCC/C=C\CCCCCCCC(=O)OCCC1CCN(CCSCSCCN2CCC(CCOC(=O)CCCCCCC/C=C\CCCCCCCC)CC2)CC1 [SS-OC] | 
4 | decreased at pH 6.5 and pH 7 | decreased at pH 6.5 and pH 7 | higher values in a low pH environment | CCCCCCCC/C=C\CCCCCCCC(=O)Oc1ccc(CC(=O)OCCC2CCN(CCSSCCN3CCC(CCOC(=O)Cc4ccc(OC(=O)CCCCCCC/C=C\CCCCCCCC)cc4)CC3)CC2)cc1 [SS-OP] | highest in vitro activity was observed at pH 6; also recorded: slightly decreasing at pH 6.5; also recorded: low activity was observed at pH 5, pH 5.5, and pH 7
